Test results published in PubChem BioAssay (NCI).
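GI50 marks 50% less growth. At the TGI there is no net growth.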

Legend:
Experiment in all cases: inhibition of tumour cell growth, NCI panel, 384-well format
NCI-H322M lung = test system: NCI-H322M lung
OVCAR-3 ovarian = test system: OVCAR-3 ovarian
HS 578T breast = test system: HS 578T breast
MOLT-4 leukemia = test system: MOLT-4 leukemia
SF-268 CNS = test system: SF-268 CNS
NCI-H522 lung = test system: NCI-H522 lung
SF-295 CNS = test system: SF-295 CNS
SF-539 CNS = test system: SF-539 CNS
SR leukemia = test system: SR leukemia
SK-OV-3 ovarian = test system: SK-OV-3 ovarian
MDA-MB-468 breast = test system: MDA-MB-468 breast
HCC-2998 colon = test system: HCC-2998 colon
COLO 205 colon = test system: COLO 205 colon
OVCAR-8 ovarian = test system: OVCAR-8 ovarian
IGROV1 ovarian = test system: IGROV1 ovarian
DU-145 prostate = test system: DU-145 prostate
K-562 leukemia = test system: K-562 leukemia
SK-MEL-28 melanoma = test system: SK-MEL-28 melanoma
SNB-75 CNS = test system: SNB-75 CNS
MCF7 breast = test system: MCF7 breast
SK-MEL-5 melanoma = test system: SK-MEL-5 melanoma
HT29 colon = test system: HT29 colon
NCI-H23 lung = test system: NCI-H23 lung
UACC-257 melanoma = test system: UACC-257 melanoma
SNB-19 CNS = test system: SNB-19 CNS
HCT-116 colon = test system: HCT-116 colon
M14 melanoma = test system: M14 melanoma
TK-10 renal = test system: TK-10 renal
HOP-92 NSCLC = test system: HOP-92 NSCLC
ACHN renal = test system: ACHN renal
CAKI-1 renal = test system: CAKI-1 renal
RPMI-8226 leukemia = test system: RPMI-8226 leukemia
SW-620 colon = test system: SW-620 colon
BT-549 breast = test system: BT-549 breast
MDA-MB-435 melanoma = test system: MDA-MB-435 melanoma
KM12 colon = test system: KM12 colon
T-47D breast = test system: T-47D breast
OVCAR-4 ovarian = test system: OVCAR-4 ovarian
MALME-3M melanoma = test system: MALME-3M melanoma
NCI/ADR-RES ovarian = test system: NCI/ADR-RES ovarian
LOX IMVI melanoma = test system: LOX IMVI melanoma
HCT-15 colon = test system: HCT-15 colon
UO-31 renal = test system: UO-31 renal
RXF 393 renal = test system: RXF 393 renal
U251 glioblastoma = test system: U251 glioblastoma
A498 renal = test system: A498 renal
SN12C renal = test system: SN12C renal
HL-60(TB) leukemia = test system: HL-60(TB) leukemia
EKVX NSCLC = test system: EKVX NSCLC
CCRF-CEM leukemia = test system: CCRF-CEM leukemia
A549 NSCLC = test system: A549 NSCLC
NCI-H226 lung = test system: NCI-H226 lung
MDA-MB-231 breast = test system: MDA-MB-231 breast
786-0 renal = test system: 786-0 renal
PC-3 prostate = test system: PC-3 prostate
UACC-62 melanoma = test system: UACC-62 melanoma
HOP-62 NSCLC = test system: HOP-62 NSCLC
NCI-H460 NSCLC = test system: NCI-H460 NSCLC

CN(C)C(=O)[C@H](O)[C@H](Cc1ccccc1)NC(=O)c1cc2cc(Cl)ccc2[nH]1
GI50 (NCI-H322M lung): 28.1 µM | TGI (NCI-H322M lung): 67.7 µM | GI50 (OVCAR-3 ovarian): 16.5 µM | TGI (OVCAR-3 ovarian): 31.5 µM | GI50 (HS 578T breast): 25.6 µM | TGI (HS 578T breast): 59.3 µM | GI50 (MOLT-4 leukemia): 14.4 µM | TGI (MOLT-4 leukemia): 27.7 µM | GI50 (SF-268 CNS): 22.2 µM | TGI (SF-268 CNS): 50.2 µM | GI50 (NCI-H522 lung): 22.6 µM | TGI (NCI-H522 lung): 58.2 µM | GI50 (SF-295 CNS): 21.8 µM | TGI (SF-295 CNS): 44.2 µM | GI50 (SF-539 CNS): 28.3 µM | TGI (SF-539 CNS): 72.3 µM | GI50 (SR leukemia): 19.5 µM | TGI (SR leukemia): 33.7 µM | GI50 (SK-OV-3 ovarian): 32.9 µM | TGI (SK-OV-3 ovarian): > 100 µM | GI50 (MDA-MB-468 breast): 19.1 µM | TGI (MDA-MB-468 breast): 36.1 µM | GI50 (HCC-2998 colon): 15.4 µM | TGI (HCC-2998 colon): 31.8 µM | GI50 (COLO 205 colon): 41.3 µM | TGI (COLO 205 colon): > 100 µM | GI50 (OVCAR-8 ovarian): 36.4 µM | TGI (OVCAR-8 ovarian): > 100 µM | GI50 (IGROV1 ovarian): 25.8 µM | TGI (IGROV1 ovarian): 64.8 µM | GI50 (DU-145 prostate): 30.7 µM | TGI (DU-145 prostate): 91.7 µM | GI50 (K-562 leukemia): 20.2 µM | TGI (K-562 leukemia): 44.9 µM | GI50 (SK-MEL-28 melanoma): 31.2 µM | TGI (SK-MEL-28 melanoma): 88.4 µM | GI50 (SNB-75 CNS): 31.2 µM | TGI (SNB-75 CNS): > 100 µM | GI50 (MCF7 breast): 17.8 µM | TGI (MCF7 breast): 43 µM | GI50 (SK-MEL-5 melanoma): 15.6 µM | TGI (SK-MEL-5 melanoma): 29.4 µM | GI50 (HT29 colon): 21.8 µM | TGI (HT29 colon): 49.1 µM | GI50 (NCI-H23 lung): 28.1 µM | TGI (NCI-H23 lung): 77.5 µM | GI50 (UACC-257 melanoma): 20.5 µM | TGI (UACC-257 melanoma): 37 µM | GI50 (SNB-19 CNS): 34.8 µM | TGI (SNB-19 CNS): > 100 µM | GI50 (HCT-116 colon): 22 µM | TGI (HCT-116 colon): 66.5 µM | GI50 (M14 melanoma): 23.4 µM | TGI (M14 melanoma): 55.6 µM | GI50 (TK-10 renal): 25.1 µM | TGI (TK-10 renal): 67.9 µM | GI50 (HOP-92 NSCLC): 26.9 µM | TGI (HOP-92 NSCLC): 65.8 µM | GI50 (ACHN renal): 28.4 µM | TGI (ACHN renal): 74.3 µM | GI50 (CAKI-1 renal): 25.1 µM | TGI (CAKI-1 renal): 77.8 µM | GI50 (RPMI-8226 leukemia): 13.3 µM | TGI (RPMI-8226 leukemia): 26.3 µM | GI50 (SW-620 colon): 25.3 µM | TGI (SW-620 colon): 57.1 µM | GI50 (BT-549 breast): 20.5 µM | TGI (BT-549 breast): 47.8 µM | GI50 (MDA-MB-435 melanoma): 38.3 µM | TGI (MDA-MB-435 melanoma): > 100 µM | GI50 (KM12 colon): 20.8 µM | TGI (KM12 colon): 50.9 µM | GI50 (T-47D breast): 26.9 µM | TGI (T-47D breast): 99.6 µM | GI50 (OVCAR-4 ovarian): 32 µM | TGI (OVCAR-4 ovarian): 89.9 µM | GI50 (MALME-3M melanoma): 21.2 µM | TGI (MALME-3M melanoma): 55.4 µM | GI50 (NCI/ADR-RES ovarian): 27.3 µM | TGI (NCI/ADR-RES ovarian): 70.6 µM | GI50 (LOX IMVI melanoma): 20.3 µM | TGI (LOX IMVI melanoma): 36.1 µM | GI50 (HCT-15 colon): 27.5 µM | TGI (HCT-15 colon): 74.7 µM | GI50 (UO-31 renal): 31.1 µM | TGI (UO-31 renal): 92 µM | GI50 (RXF 393 renal): 20.7 µM | TGI (RXF 393 renal): 54.8 µM | GI50 (U251 glioblastoma): 32.7 µM | TGI (U251 glioblastoma): 96.8 µM | GI50 (A498 renal): 26.7 µM | TGI (A498 renal): 61 µM | GI50 (SN12C renal): 25.9 µM | TGI (SN12C renal): 77 µM | GI50 (HL-60(TB) leukemia): 16.6 µM | TGI (HL-60(TB) leukemia): 30.5 µM | GI50 (EKVX NSCLC): 32.7 µM | TGI (EKVX NSCLC): 97.3 µM | GI50 (CCRF-CEM leukemia): 17.9 µM | TGI (CCRF-CEM leukemia): 32.7 µM | GI50 (A549 NSCLC): 27.3 µM | TGI (A549 NSCLC): 77 µM | GI50 (NCI-H226 lung): 23.1 µM | TGI (NCI-H226 lung): 57.5 µM | GI50 (MDA-MB-231 breast): 27 µM | TGI (MDA-MB-231 breast): > 100 µM | GI50 ([…]-0 renal): 20.5 µM | TGI (786-0 renal): 51.1 µM | GI50 (PC-3 prostate): 21.3 µM | TGI (PC-3 prostate): 46.7 µM | GI50 (UACC-62 melanoma): 18.4 µM | TGI (UACC-62 melanoma): 41 µM | GI50 (HOP-62 NSCLC): 22.6 µM | TGI (HOP-62 NSCLC): 51.7 µM | GI50 (NCI-H460 NSCLC): 19.2 µM | TGI (NCI-H460 NSCLC): 36.2 µM
